In patent US12065443B2, “Compounds and pharmaceutical compositions thereof for the treatment of diseases” (priority 2017, dated 2024):
pEC50, pIC50: −log10 of the molar value. Where two headings read alike, the source gives them in different places.

Tests used:
[1] = test system: LPS-induced TNFα secretion in monocyte-derived macrophages (MdM); experiment: MdM assay: LPS-triggered TNFα (ELISA); type: cell-based, human; conditions: Homo sapiens, Macrophage, LPS-triggered TNFα inhibition
Outline: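 TNFα ELISA read on supernatants harvested 20 h after LPS (final 200 ng/mL) stimulation. Cells were day-10 macrophages derived from human blood CD14+ monocytes, exposed to 3-fold compound dilutions for 1 h at 37 °C beforehand, with DMSO held at 0.2%.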

[2] = test system: LPS triggered IL-10 secretion in monocyte-derived macrophages (MdM); experiment: MdM assay: LPS-triggered IL-10 (ELISA); type: cell-based, human; conditions: maximal fold change vs LPS only, median across assays
Outline: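 Readout is IL-10FCmax, the median across at least two runs of the highest fold change over LPS-only, from ELISA absorbance at 450 nm of 2 h supernatants. Macrophages came from day-10 cultures of human CD14+ monocytes, were given compound for 1 h at 37° C in 0.2% DMSO, then 200 ng/mL LPS.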

SIK1 [3] = target: T1, SIK1 (Homo sapiens, UniProt P57059); experiment: biochemical
T1 construct: purchased Carna Biosciences 02-131
T1 sequence (P57059 whole entry): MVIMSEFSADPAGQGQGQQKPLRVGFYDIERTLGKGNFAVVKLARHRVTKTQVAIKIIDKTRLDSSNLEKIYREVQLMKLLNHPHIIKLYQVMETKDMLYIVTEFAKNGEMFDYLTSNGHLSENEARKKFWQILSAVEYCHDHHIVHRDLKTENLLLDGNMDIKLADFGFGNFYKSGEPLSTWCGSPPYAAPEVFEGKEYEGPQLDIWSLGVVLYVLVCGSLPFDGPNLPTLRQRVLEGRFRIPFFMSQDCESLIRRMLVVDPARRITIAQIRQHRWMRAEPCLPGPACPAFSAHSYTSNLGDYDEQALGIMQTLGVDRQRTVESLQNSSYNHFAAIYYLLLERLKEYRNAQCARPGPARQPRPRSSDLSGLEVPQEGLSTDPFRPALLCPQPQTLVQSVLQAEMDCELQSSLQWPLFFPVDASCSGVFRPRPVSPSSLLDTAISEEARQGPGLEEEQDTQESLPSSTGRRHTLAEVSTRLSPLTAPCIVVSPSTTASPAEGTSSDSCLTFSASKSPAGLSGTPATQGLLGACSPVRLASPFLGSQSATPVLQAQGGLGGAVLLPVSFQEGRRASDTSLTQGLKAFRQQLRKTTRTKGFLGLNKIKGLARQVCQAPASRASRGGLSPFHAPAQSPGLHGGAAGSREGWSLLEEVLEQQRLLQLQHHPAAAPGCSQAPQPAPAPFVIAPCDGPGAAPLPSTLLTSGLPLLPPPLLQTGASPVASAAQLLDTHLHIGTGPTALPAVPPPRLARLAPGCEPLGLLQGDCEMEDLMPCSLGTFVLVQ
Outline: (§1)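 Radiometric assay: SIK1, SIK2 or SIK3 phosphorylates AMARA peptide using unlabelled plus [^33P]-γ-ATP, reaction started by ATP addition. Stopped with 150 mM phosphoric acid, filter-harvested and washed; incorporated ^33P counted by scintillation. Controls: 1% DMSO and 10 μM staurosporine final.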

SIK2 [4] = target: T2, SIK2 (Homo sapiens, UniProt Q9H0K1); experiment: biochemical; conditions: 33P radioactive SIK kinase assay, AMARA peptide, 10 μM ATP
T2 construct: purchased ThermoFisher Scientific PV4792
T2 sequence (Q9H0K1 whole entry): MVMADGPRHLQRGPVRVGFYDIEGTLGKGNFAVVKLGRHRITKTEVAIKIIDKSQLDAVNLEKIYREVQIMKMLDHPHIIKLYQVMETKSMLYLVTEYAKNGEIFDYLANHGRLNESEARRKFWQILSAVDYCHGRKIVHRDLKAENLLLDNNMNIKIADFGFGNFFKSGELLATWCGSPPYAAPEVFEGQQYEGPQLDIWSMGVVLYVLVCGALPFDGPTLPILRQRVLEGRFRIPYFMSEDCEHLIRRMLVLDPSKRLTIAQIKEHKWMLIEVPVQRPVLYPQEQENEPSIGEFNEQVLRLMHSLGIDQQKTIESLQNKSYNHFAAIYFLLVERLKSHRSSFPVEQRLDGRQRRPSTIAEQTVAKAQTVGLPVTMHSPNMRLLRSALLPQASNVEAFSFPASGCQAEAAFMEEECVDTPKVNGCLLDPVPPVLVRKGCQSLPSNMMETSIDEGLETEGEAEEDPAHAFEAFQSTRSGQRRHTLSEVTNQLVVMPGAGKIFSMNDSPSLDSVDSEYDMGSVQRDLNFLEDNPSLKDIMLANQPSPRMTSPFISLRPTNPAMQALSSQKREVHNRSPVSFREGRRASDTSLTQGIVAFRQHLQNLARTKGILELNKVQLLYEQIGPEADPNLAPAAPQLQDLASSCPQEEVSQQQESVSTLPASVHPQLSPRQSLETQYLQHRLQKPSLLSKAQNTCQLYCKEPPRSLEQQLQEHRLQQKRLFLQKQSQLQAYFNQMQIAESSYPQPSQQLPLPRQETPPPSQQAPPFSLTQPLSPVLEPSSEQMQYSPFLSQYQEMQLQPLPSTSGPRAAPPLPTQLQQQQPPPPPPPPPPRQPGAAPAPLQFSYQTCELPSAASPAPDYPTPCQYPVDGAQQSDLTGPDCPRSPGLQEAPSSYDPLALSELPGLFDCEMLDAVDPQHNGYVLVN
Outline: as §1

SIK3 [5] = target: T3, SIK3 (Homo sapiens, UniProt Q9Y2K2); experiment: biochemical
T3 construct: purchased SignalChem S12-11G-100
T3 sequence (Q9Y2K2 whole entry): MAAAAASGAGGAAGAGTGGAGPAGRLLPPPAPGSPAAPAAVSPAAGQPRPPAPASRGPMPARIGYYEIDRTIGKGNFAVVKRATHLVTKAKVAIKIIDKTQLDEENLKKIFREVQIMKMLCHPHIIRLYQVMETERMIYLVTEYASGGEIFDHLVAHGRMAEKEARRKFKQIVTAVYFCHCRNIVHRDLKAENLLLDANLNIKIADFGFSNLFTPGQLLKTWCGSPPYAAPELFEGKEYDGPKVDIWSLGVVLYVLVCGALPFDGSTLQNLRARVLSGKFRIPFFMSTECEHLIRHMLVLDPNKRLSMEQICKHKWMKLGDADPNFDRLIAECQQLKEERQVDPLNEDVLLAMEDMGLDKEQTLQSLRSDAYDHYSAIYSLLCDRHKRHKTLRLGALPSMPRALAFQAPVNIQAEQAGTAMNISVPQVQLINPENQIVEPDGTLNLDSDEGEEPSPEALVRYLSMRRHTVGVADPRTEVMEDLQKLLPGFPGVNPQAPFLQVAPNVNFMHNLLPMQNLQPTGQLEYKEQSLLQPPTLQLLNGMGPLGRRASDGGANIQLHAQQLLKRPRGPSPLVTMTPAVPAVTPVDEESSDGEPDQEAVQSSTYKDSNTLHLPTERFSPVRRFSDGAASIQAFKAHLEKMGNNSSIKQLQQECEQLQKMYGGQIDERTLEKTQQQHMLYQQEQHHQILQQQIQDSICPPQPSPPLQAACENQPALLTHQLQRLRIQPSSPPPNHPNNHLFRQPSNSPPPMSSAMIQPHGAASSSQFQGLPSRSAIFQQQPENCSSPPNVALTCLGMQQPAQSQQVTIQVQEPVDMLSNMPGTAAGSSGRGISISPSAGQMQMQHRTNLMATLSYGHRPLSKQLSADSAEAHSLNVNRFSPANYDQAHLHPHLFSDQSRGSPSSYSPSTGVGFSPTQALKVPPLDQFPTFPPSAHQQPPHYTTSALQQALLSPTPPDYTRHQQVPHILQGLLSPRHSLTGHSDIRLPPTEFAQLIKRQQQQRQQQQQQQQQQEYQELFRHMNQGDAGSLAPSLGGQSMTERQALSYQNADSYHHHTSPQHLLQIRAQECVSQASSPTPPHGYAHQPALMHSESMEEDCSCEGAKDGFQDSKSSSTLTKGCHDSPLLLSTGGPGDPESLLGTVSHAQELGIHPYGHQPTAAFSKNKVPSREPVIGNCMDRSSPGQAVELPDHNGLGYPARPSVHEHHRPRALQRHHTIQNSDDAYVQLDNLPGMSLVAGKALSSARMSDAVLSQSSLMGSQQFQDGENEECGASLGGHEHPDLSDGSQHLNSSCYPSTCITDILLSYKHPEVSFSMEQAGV
Outline: as §1

[6] = test system: LPS driven TNFα secretion in Peripheral Blood Mononuclear Cells (PBMC); experiment: cells; type: cell-based; conditions: Homo sapiens, LPS 1 ng/mL, supernatant after 18-20 h, ELISA
Experimental: This assay measures the inhibition of LPS driven TNFα secretion by a test compound in Peripheral Blood Mononuclear Cells (PBMC), which in turn correlates with SIK inhibition.
PBMCs are isolated from human blood samples (buffy coats). The buffy coat is aseptically transferred into a 50 mL Falcon™ tube, and diluted 1/2 in Phosphate Buffered Saline (PBS). […] The tubes are centrifuged for 35 min at 400× g in temperature controlled centrifuge, without brake, at 25° C. PBMCs are aspirated from the white interface layer between sample and Lymphoprep. PBMCs are washed five times in PBS. […] The PBMCs are finally seeded at 400,000 PBMC/160 μL/96-well.
A compound dilution plate is made in 100% DMSO by 3-fold dilution of 10 mM stock solution of test compound. An intermediate dilution plate (10× final concentration) is made by diluting the compound dilution plate 50-fold in RPMI medium.
20 μL of the 10× final concentration compound is added to the cells and incubated for 1 hour at 37° C. before addition of trigger. No trigger conditions/trigger conditions are spiked with equal final DMSO concentrations of 0.2% DMSO. 20 μL of 10×LPS (final concentration 1 ng/mL) solution are added to all wells except for the ‘no trigger wells’ where 20 μL medium is added. Supernatant is collected after 18-20 h for IL-10 and TNFα determination using ELISA.
The plate is then washed once with PBST (PBS+0.05% Tween20) and once with PBS followed by the addition of 100 μL of blocking buffer (1% Bovine Serum Albumin (BSA)-5% Sucrose) and plates are sealed and incubated for at least 4 h at RT. After washing the plate once with PBST and once with PBS, 40 μL of standard or sample are added (TNFα standard curve is prepared using a 1/2 serial dilution starting from 16000 pg/mL; dilutions are made in dilution buffer (PBS+1% BSA)). Plates are washed twice with PBST, and once with PBS, after which 35 μL of the detection antibody is added (final concentration 0.25 μg/mL diluted in dilution buffer) and plates are incubated for at least 2 h at RT. Plates are washed twice with PBST, and once with PBS, where after 35 μL of Strep-HRP conjugate (0.5 μg/mL final concentration diluted in dilution buffer) is added. Plates are incubated in the dark, at RT for at least 45 min but no longer than 1 hour. Plates are washed twice with PBST, and once with PBS. Thereafter, 50 μL of luminol substrate is added to each well (prepared according to manufacturer's instructions), and incubated for 5 min at RT protected from light.
To measure the inhibition of LPS induced TNFα, percentage inhibition (PIN) values are calculated for all concentrations tested, compared to controls.
PIN values are plotted in concentration-response and EC50 values are derived using GraphPad Prism Software, applying 4-parameter nonlinear regression (sigmoidal) curve fitting.

SIK1 [7] = target: T1, SIK1; experiment: biochemical; conditions: ADP-Glo SIK kinase assay
Outline: (§2)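 Enzyme–substrate mix was started with ATP and incubated 120 min at RT. ADP formed was quantified by ADP-Glo: 40 min ATP depletion, then 30 min detection reagent converting ADP to ATP for luciferase luminescence, which rises with kinase activity. Controls: 1% DMSO and 10 μM staurosporine (final).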

SIK2 [8] = target: T2, SIK2; experiment: biochemical; conditions: ADP-Glo SIK kinase assay
Outline: as §2

SIK3 [9] = target: T3, SIK3; experiment: biochemical; conditions: ADP-Glo SIK kinase assay
Outline: as §2

[10] = 33P radioactive SIK kinase assay, AMARA peptide, 10 μM ATP, read-out: SIK1 IC50

Row | SMILES | pEC50 [1] | pIC50 (SIK1 [3]; [10]) | pIC50 (SIK2 [4]) | pIC50 (SIK3 [5]) | pIC50 (SIK1 [3]) | pIC50 (SIK1 [7]) | pIC50 (SIK2 [8]) | pIC50 (SIK3 [9]) | IL-10 FCmax median [2] | pEC50 [6]
1 | COc1cc(-n2cnc3cc(-c4cnn(C)c4)ccc32)cc(OC)c1C(=O)NCC(F)(F)F [Cpd 25, 2,6-dimethoxy-4-[5-(1-methylpyrazol-4-yl)benzimidazol-1-yl]-N-(2,2,2-trifluoroethyl)benzamide] | 7.00 to 10.00 | 7.00 to 8.00 | 8.00 to 11.00 | 8.00 to 11.00 | – | – | – | – | ++ (>1.5-4.5) | 7.00 to 10.00
2 | COc1cc(-n2cnc3cc(-c4cnn(C5CNC5)c4)ccc32)cc(OC)c1C(=O)NCC(F)(F)F [Cpd 94, 4-[5-[1-(azetidin-3-yl)pyrazol-4-yl]benzimidazol-1-yl]-2,6-dimethoxy-N-(2,2,2-trifluoroethyl)benzamide] | 6.00 to 7.00 | 8.00 to 11.00 | 8.00 to 11.00 | 8.00 to 11.00 | – | – | – | – | – | 7.00 to 10.00
3 | COc1cc(-n2cnc3cc(-c4cnn(C5CN(CC#N)C5)c4)ccc32)cc(OC)c1C(=O)NCC(F)(F)F [Cpd 100, 4-[5-[1-[1-(cyanomethyl)azetidin-3-yl]pyrazol-4-yl]benzimidazol-1-yl]-2,6-dimethoxy-N-(2,2,2-trifluoroethyl)benzamide] | 6.00 to 7.00 | 7.00 to 8.00 | 8.00 to 11.00 | 8.00 to 11.00 | – | – | – | – | – | 7.00 to 10.00
4 | COc1cc(-n2cnc3cc(-c4cnn(CC(C)C)c4)ccc32)cc(OC)c1C(=O)NCC(F)(F)F [Cpd 110, 4-[5-(1-isobutylpyrazol-4-yl)benzimidazol-1-yl]-2,6-dimethoxy-N-(2,2,2-trifluoroethyl)benzamide] | 6.00 to 7.00 | 7.00 to 8.00 | 8.00 to 11.00 | 8.00 to 11.00 | – | – | – | – | – | 7.00 to 10.00
5 | COc1cc(-c2cnc3cc(-c4cnn(C)c4)ccn23)cc(OC(F)F)c1C(=O)NC1CC1 [Cpd 124, N-cyclopropyl-2-(difluoromethoxy)-6-methoxy-4-[7-(1-methylpyrazol-4-yl)imidazo[1,2-a]pyridin-3-yl]benzamide] | 7.00 to 10.00 | 8.00 to 11.00 | 8.00 to 11.00 | 8.00 to 11.00 | – | – | – | – | ++ (>1.5-4.5) | 7.00 to 10.00
6 | COc1cc(-n2cnc3cc(-c4cnn(C(C)C)c4)ccc32)cc(OC)c1C(=O)NCC(F)(F)F [compound 95, 4-[5-(1-isopropylpyrazol-4-yl)benzimidazol-1-yl]-2,6-dimethoxy-N-(2,2,2-trifluoroethyl)benzamide] | 7.00 to 10.00 | – | 8.00 to 11.00 | 8.00 to 11.00 | 7.00 to 8.00 | – | – | – | – | 7.00 to 10.00
7 | COc1cc(-n2cnc3cc(-c4cnn(C(F)F)c4)ccc32)cc(OC)c1C(=O)NCC(F)(F)F [compound 97, 4-[5-[1-(difluoromethyl)pyrazol-4-yl]benzimidazol-1-yl]-2,6-dimethoxy-N-(2,2,2-trifluoroethyl)benzamide] | 7.00 to 10.00 | 7.00 to 8.00 | 8.00 to 11.00 | 8.00 to 11.00 | – | – | – | – | – | 7.00 to 10.00
8 | COc1cc(-c2cnn3cc(-c4cnn(C)c4)ccc23)cc(OC)c1C(=O)NCC(F)(F)F [compound 99, 2,6-dimethoxy-4-[6-(1-methylpyrazol-4-yl)pyrazolo[1,5-a]pyridin-3-yl]-N-(2,2,2-trifluorocthyl)benzamide] | 7.00 to 10.00 | 8.00 to 11.00 | 8.00 to 11.00 | 8.00 to 11.00 | – | – | – | – | – | 7.00 to 10.00
9 | COc1cc(-n2cnc3cc(-c4cc(C)n[nH]4)ccc32)cc(OC)c1C(=O)NCC(F)(F)F [compound 101, 2,6-dimethoxy-4-[5-(3-methyl-1H-pyrazol-5-yl)benzimidazol-1-yl]-N-(2,2,2-trifluoroethyl)benzamide] | 7.00 to 10.00 | 7.00 to 8.00 | 8.00 to 11.00 | 8.00 to 11.00 | – | – | – | – | – | 7.00 to 10.00
10 | CCCn1cc(-c2ccc3c(c2)ncn3-c2cc(OC)c(C(=O)NCC(F)(F)F)c(OC)c2)cn1 [compound 103, 2,6-dimethoxy-4-[5-(1-propylpyrazol-4-yl)benzimidazol-1-yl]-N-(2,2,2-trifluoroethyl)benzamide] | 7.00 to 10.00 | 8.00 to 11.00 | 8.00 to 11.00 | 8.00 to 11.00 | – | – | – | – | – | 7.00 to 10.00
11 | COc1cc(-c2cnc3cc(-c4cnn(C)c4)cnn23)cc(OC)c1C(=O)NCC(F)(F)F [compound 107] | 6.00 to 7.00 | 7.00 to 8.00 | 8.00 to 11.00 | 8.00 to 11.00 | – | – | – | – | – | 7.00 to 10.00

Now from value to molecule, other results behind:

Row | pEC50 [1] | pIC50 (SIK1 [3]; [10]) | pIC50 (SIK2 [4]) | pIC50 (SIK3 [5]) | pIC50 (SIK1 [3]) | pIC50 (SIK1 [7]) | pIC50 (SIK2 [8]) | pIC50 (SIK3 [9]) | SMILES | IL-10 FCmax median [2] | pEC50 [6]
12 | 6.00 to 7.00 | 7.00 to 8.00 | 7.00 to 8.00 | 7.00 to 8.00 | – | – | – | – | COc1cc(-n2cnc3cc(-c4cc(C)no4)ccc32)cc(OC)c1C(=O)NCC(F)(F)F [compound 109, 2.6-dimethoxy-4-[5-(3-methylisoxazol-5-yl)benzimidazol-1-yl]-N-(2,2,2-trifluoroethyl)benzamide] | – | 6.00 to 7.00
13 | 7.00 to 10.00 | 8.00 to 11.00 | 8.00 to 11.00 | 8.00 to 11.00 | – | – | – | – | CCNC(=O)c1c(OC)cc(-c2cnn3cc(-c4cnn(C)c4)ccc23)cc1OC(F)F [compound 117, 2-(difluoromethoxy)-N-ethyl-6-methoxy-4-[6-(1-methylpyrazol-4-yl)pyrazolo[1,5-a]pyridin-3-yl]benzamide] | – | 7.00 to 10.00
14 | 6.00 to 7.00 | 7.00 to 8.00 | 7.00 to 8.00 | 7.00 to 8.00 | – | 7.00 to 8.00 | 7.00 to 8.00 | 7.00 to 8.00 | COc1cc(-n2cnc3cc(-c4cnn(C)c4)ccc32)cc(OC)c1C(=O)N1CC(F)(F)C1 [compound 142, (3,3-difluoroazetidin-1-yl)-[2,6-dimethoxy-4-[5-(1-methylpyrazol-4-yl)benzimidazol-1-yl]phenyl]methanone] | ++ (>1.5-4.5) | –
15 | 6.00 to 7.00 | 7.00 to 8.00 | 7.00 to 8.00 | 7.00 to 8.00 | – | – | – | – | COc1cc(-n2cnc3cc(-c4cnn(C)c4)ccc32)cc(OC)c1C(=O)N1CC(C)(C)C1 [compound 179, [2,6-dimcthoxy-4-[5-(1-methylpyrazol-4-yl)benzimidazol-1-yl]phenyl]-(3,3-dimethylazetidin-1-yl)methanone] | – | 6.00 to 7.00
16 | 6.00 to 7.00 | 7.00 to 8.00 | 8.00 to 11.00 | 8.00 to 11.00 | – | 7.00 to 8.00 | 8.00 to 11.00 | 8.00 to 11.00 | COc1cc(-c2cnc3cc(-c4cn(C)cn4)ccn23)cc(OC)c1C(=O)N[C@H](C)C(F)(F)F [compound 215, 2,6-dimethoxy-4-[7-(1-methylimidazol-4-yl)imidazo[1,2-a]pyridin-3-yl]-N-[(1R)-2,2,2-trifluoro-1-methyl-ethyl]benzamide] | ++ (>1.5-4.5) | –
17 | 7.00 to 10.00 | 8.00 to 11.00 | 8.00 to 11.00 | 8.00 to 11.00 | – | 8.00 to 11.00 | 8.00 to 11.00 | 8.00 to 11.00 | COc1cc(-c2cnc3cc(-c4cn[nH]c4)ccn23)cc(OC)c1C(=O)NCC(F)(F)F [compound 227, 2,6-dimethoxy-4-[7-(1H-pyrazol-4-yl)imidazo[1,2-a]pyridin-3-yl]-N-(2,2,2-trifluoroethyl)benzamide] | +++ (>4.5) | –
18 | 7.00 to 10.00 | 8.00 to 11.00 | 8.00 to 11.00 | 8.00 to 11.00 | – | 8.00 to 11.00 | 8.00 to 11.00 | 8.00 to 11.00 | CCOC(=O)Cn1cc(-c2ccn3c(-c4cc(OC)c(C(=O)NCC(F)(F)F)c(OC)c4)cnc3c2)cn1 [compound 230, ethyl 2-[4-[3-[3,5-dimethoxy-4-(2,2,2-trifluoroethyl-carbamoyl)phenyl]imidazo[1,2-a]pyridin-7-yl]pyrazol-1-yl]acetate] | +++ (>4.5) | –
19 | 7.00 to 10.00 | 8.00 to 11.00 | 8.00 to 11.00 | 8.00 to 11.00 | – | 8.00 to 11.00 | 8.00 to 11.00 | 8.00 to 11.00 | CCOC(=O)C(C)n1cc(-c2ccn3c(-c4cc(OC)c(C(=O)NCC(F)(F)F)c(OC)c4)cnc3c2)cn1 (stereo not shown) [compound 263, ethyl 2-[4-[3-[3,5-dimethoxy-4-(2,2,2-trifluoroethyl-carbamoyl)phenyl]imidazo[1,2-a]pyridin-7-yl]pyrazol-1-yl]propanoate] | ++ (>1.5-4.5) | –
